These results are taken from PubChem BioAssay AID330 (DTP/NCI, 2004).

In the experiment the test system is P388 leukemia ip, CD2F1 mice, survival T/C. Briefly: NCI In Vivo Anticancer Drug Screen. Data for tumor model P388 Leukemia (intraperitoneal) in CD2F1 (CDF1) mice. To be noted: endpoint: median survival time, higher = longer survival. Summed up:
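Mice carrying the transplanted tumor received test compound or vehicle. Survival was recorded in each group, and the value is the treated-group measurement divided by that of the vehicle-treated control group.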

Where [1] appears, read: dose: 50.0 mg/kg/injection, schedule: Q01DX009 (ip), vehicle: saline with Tween-80.
[2] abbreviates: dose: 100.0 mg/kg/injection, schedule: Q01DX009 (ip), vehicle: saline with Tween-80.
Where [3] appears, read: dose: 200.0 mg/kg/injection, schedule: Q01DX009 (ip), vehicle: saline with Tween-80.
The mark [4] stands for this setting: dose: 60.0 mg/kg/injection, schedule: Q01DX005 (ip), vehicle: saline with Tween-80.
The mark [5] stands for this setting: dose: 120.0 mg/kg/injection, schedule: Q01DX005 (ip), vehicle: saline with Tween-80.
The mark [6] stands for this setting: dose: 240.0 mg/kg/injection, schedule: Q01DX005 (ip), vehicle: saline with Tween-80.
Where [7] appears, read: dose: 100.0 mg/kg/injection, schedule: Q04DX003 (ip), vehicle: saline.

Values joined by “and” are separate entries in the source; they are usually repeats but may differ in a detail not shown here. Identical values can stand only once. Inconclusive results and toxic doses are left out.

Consider `O=S(=O)(Cc1ccccc1)Oc1ccccc1`, for which the T/C (dose: 100.0 mg/kg/injection, schedule: Q04DX003 (ip), vehicle: Klucel (hydroxypropylcellulose) (HPC)) was 109 % of control; the T/C (dose: 200.0 mg/kg/injection, schedule: Q04DX003 (ip), vehicle: Klucel (hydroxypropylcellulose) (HPC)) is 103 % of control; the T/C (dose: 400.0 mg/kg/injection, schedule: Q04DX003 (ip), vehicle: Klucel (hydroxypropylcellulose) (HPC)) was 94 % of control.

For `O=C(Nc1ccccc1)Nc1ccc(OCc2ccccc2)cc1`, the T/C runs as follows: under setting [1], 90 % of control; under setting [2], 88 % of control; under setting [3], 114 % of control.

Regarding `CCCC(NC(=O)C(C)NC(=O)OCc1ccccc1)C(=O)O` (stereo unspecified), the T/C was 98 % of control (dose: 50.0 mg/kg/injection, schedule: Q01DX005 (ip), vehicle: Klucel (hydroxypropylcellulose) (HPC)); 96 % of control (dose: 100.0 mg/kg/injection, schedule: Q01DX005 (ip), vehicle: Klucel (hydroxypropylcellulose) (HPC)); 96 % of control (dose: 200.0 mg/kg/injection, schedule: Q01DX005 (ip), vehicle: Klucel (hydroxypropylcellulose) (HPC)).

As for `CN(C)c1noc2c1c(=O)n(C)c(=O)n2C`, the T/C was 105 % of control (dose: 60.0 mg/kg/injection, schedule: Q01DX005 (ip), vehicle: saline); 100 % of control (dose: 120.0 mg/kg/injection, schedule: Q01DX005 (ip), vehicle: saline); 99 % of control (dose: 240.0 mg/kg/injection, schedule: Q01DX005 (ip), vehicle: saline).

Consider `CC(=O)CC(=O)c1c(-c2ccccc2)[nH]c2ccccc12`, for which the T/C is, setting by setting: (dose: 25.0 mg/kg/injection, schedule: Q04DX003 (ip), vehicle: saline + alcohol) 100 % of control; (dose: 50.0 mg/kg/injection, schedule: Q04DX003 (ip), vehicle: saline + alcohol) 102 % of control; (dose: 100.0 mg/kg/injection, schedule: Q04DX003 (ip), vehicle: saline + alcohol) 107 % of control and 96 % of control.

With `CC(C)C(NC(=O)OCC[P+](c1ccccc1)(c1ccccc1)c1ccccc1)C(=O)O` (stereo unspecified), the T/C is, setting by setting: under setting [1], 116 % of control; under setting [2], 103 % of control; under setting [3], 91 % of control.

As for `O=C(NN(Cc1ccccc1)S(=O)(=O)c1ccccc1)c1ccccc1`, the T/C was 101 % of control (dose: 50.0 mg/kg/injection, schedule: Q01DX005 (ip), vehicle: saline with Tween-80); 107 % of control (dose: 100.0 mg/kg/injection, schedule: Q01DX005 (ip), vehicle: saline with Tween-80); 103 % of control (dose: 200.0 mg/kg/injection, schedule: Q01DX005 (ip), vehicle: saline with Tween-80).

With `CS(=O)(=O)OCc1ccc(COS(C)(=O)=O)cc1`, the T/C (dose: 12.5 mg/kg/injection, schedule: Q04DX003 (ip), vehicle: Klucel (hydroxypropylcellulose) (HPC)) was 123 % of control.

`CC(C)C[N+]1(Cc2ccc(Cl)c(Cl)c2)CCOCC1`: the T/C (dose: 100.0 mg/kg/injection, schedule: Q04DX002 (ip), vehicle: saline with Tween-80) was 99 % of control and the T/C (dose: 200.0 mg/kg/injection, schedule: Q04DX002 (ip), vehicle: saline with Tween-80) was 108 % of control.

Take `CCN(CC)Cc1c(C)nc2cc(N(C)C)ccc2c1Cl`: the T/C under setting [4] was 103 % of control.

Take `CCCCOC(=O)N[C@H]1CCc2cc(OC)c(OC)c(OC)c2-c2ccc(SC)c(=O)cc21`: the T/C reads like this: (dose: 0.38 mg/kg/injection, schedule: Q01DX009 (ip), vehicle: Klucel (hydroxypropylcellulose) (HPC)) 112 % of control; (dose: 0.75 mg/kg/injection, schedule: Q01DX009 (ip), vehicle: Klucel (hydroxypropylcellulose) (HPC)) 122 % of control and 123 % of control; (dose: 1.5 mg/kg/injection, schedule: Q01DX009 (ip), vehicle: Klucel (hydroxypropylcellulose) (HPC)) 114 % of control; (dose: 12.0 mg/kg/injection, schedule: Q01DX009 (ip), vehicle: Klucel (hydroxypropylcellulose) (HPC)) 94 % of control.

`COc1ccc(Cl)cc1NC(=O)NNC(=O)C(=O)NC1CC1`: the T/C is, setting by setting: under setting [1], 100 % of control; under setting [2], 97 % of control; under setting [3], 102 % of control.

Regarding `CC1(O)COC1(c1ccccc1)c1ccccc1` (stereo unspecified), the T/C was 93 % of control under setting [4], 96 % of control under setting [5] and 93 % of control under setting [6].

As for `CC(Cl)C(=O)N/N=C(/c1ccccc1)C(C)(C)C` (stereo unspecified), the T/C under setting [1] was 89 % of control and the T/C under setting [2] is 86 % of control.

`Cc1ccc(S(=O)(=O)N=S(C)(=O)CCCl)cc1` (stereo unspecified): the T/C runs as follows: (dose: 25.0 mg/kg/injection, schedule: Q04DX003 (ip), vehicle: saline) 100 % of control; (dose: 50.0 mg/kg/injection, schedule: Q04DX003 (ip), vehicle: saline) 107 % of control; under setting [7], 100 % of control; (dose: 100.0 mg/kg/injection, schedule: Q04DX003 (ip), vehicle: suspension in saline) 94 % of control.

For the compound `Nc1n[nH]c(=S)n1-c1ccc(Cl)cc1`, the T/C reads like this: under setting [2], 115 % of control; under setting [3], 120 % of control; (dose: 400.0 mg/kg/injection, schedule: Q01DX009 (ip), vehicle: saline with Tween-80) 120 % of control.

Regarding `CC(=O)OC(C[N+](=O)[O-])C(Cl)(Cl)Cl` (stereo unspecified), the T/C runs as follows: (dose: 6.25 mg/kg/injection, schedule: Q01DX009 (ip), vehicle: saline with Tween-80) 104 % of control; (dose: 12.5 mg/kg/injection, schedule: Q01DX009 (ip), vehicle: saline with Tween-80) 109 % of control; (dose: 25.0 mg/kg/injection, schedule: Q01DX009 (ip), vehicle: saline with Tween-80) 100 % of control.

Consider `CC(=O)C/C(=N\NS(=O)(=O)c1cc(Cl)c(Cl)cc1Cl)c1ccc([N+](=O)[O-])cc1`, for which the T/C by setting is: under setting [7], 99 % of control; (dose: 200.0 mg/kg/injection, schedule: Q04DX003 (ip), vehicle: saline) 100 % of control; (dose: 400.0 mg/kg/injection, schedule: Q04DX003 (ip), vehicle: saline) 97 % of control.

`O=C1CCC2=C1C(c1ccccc1)C1=C(CCC1=O)O2`: the T/C runs as follows: (dose: 100.0 mg/kg/injection, schedule: Q04DX002 (ip), vehicle: Klucel (hydroxypropylcellulose) (HPC)) 100 % of control; (dose: 200.0 mg/kg/injection, schedule: Q04DX002 (ip), vehicle: Klucel (hydroxypropylcellulose) (HPC)) 100 % of control; (dose: 400.0 mg/kg/injection, schedule: Q04DX002 (ip), vehicle: Klucel (hydroxypropylcellulose) (HPC)) 111 % of control.

With `O=[N+]([O-])c1cccnc1-n1nnc2c([N+](=O)[O-])cccc21`, the T/C runs as follows: under setting [4], 99 % of control; under setting [5], 100 % of control; under setting [6], 102 % of control.
